The results in this text go back to patent publication US20250145585A1, “HETEROCYCLIC INHIBITORS OF IGF-1R FOR TREATMENT OF DISEASE” (HORIZON THERAPEUTICS IRELAND DAC, priority 2023, published 2025).

The target in the assay is T1, IGF-1R (Homo sapiens, UniProt P08069).
T1 construct: expressed in transfected cells
T1 sequence (P08069 31-1367): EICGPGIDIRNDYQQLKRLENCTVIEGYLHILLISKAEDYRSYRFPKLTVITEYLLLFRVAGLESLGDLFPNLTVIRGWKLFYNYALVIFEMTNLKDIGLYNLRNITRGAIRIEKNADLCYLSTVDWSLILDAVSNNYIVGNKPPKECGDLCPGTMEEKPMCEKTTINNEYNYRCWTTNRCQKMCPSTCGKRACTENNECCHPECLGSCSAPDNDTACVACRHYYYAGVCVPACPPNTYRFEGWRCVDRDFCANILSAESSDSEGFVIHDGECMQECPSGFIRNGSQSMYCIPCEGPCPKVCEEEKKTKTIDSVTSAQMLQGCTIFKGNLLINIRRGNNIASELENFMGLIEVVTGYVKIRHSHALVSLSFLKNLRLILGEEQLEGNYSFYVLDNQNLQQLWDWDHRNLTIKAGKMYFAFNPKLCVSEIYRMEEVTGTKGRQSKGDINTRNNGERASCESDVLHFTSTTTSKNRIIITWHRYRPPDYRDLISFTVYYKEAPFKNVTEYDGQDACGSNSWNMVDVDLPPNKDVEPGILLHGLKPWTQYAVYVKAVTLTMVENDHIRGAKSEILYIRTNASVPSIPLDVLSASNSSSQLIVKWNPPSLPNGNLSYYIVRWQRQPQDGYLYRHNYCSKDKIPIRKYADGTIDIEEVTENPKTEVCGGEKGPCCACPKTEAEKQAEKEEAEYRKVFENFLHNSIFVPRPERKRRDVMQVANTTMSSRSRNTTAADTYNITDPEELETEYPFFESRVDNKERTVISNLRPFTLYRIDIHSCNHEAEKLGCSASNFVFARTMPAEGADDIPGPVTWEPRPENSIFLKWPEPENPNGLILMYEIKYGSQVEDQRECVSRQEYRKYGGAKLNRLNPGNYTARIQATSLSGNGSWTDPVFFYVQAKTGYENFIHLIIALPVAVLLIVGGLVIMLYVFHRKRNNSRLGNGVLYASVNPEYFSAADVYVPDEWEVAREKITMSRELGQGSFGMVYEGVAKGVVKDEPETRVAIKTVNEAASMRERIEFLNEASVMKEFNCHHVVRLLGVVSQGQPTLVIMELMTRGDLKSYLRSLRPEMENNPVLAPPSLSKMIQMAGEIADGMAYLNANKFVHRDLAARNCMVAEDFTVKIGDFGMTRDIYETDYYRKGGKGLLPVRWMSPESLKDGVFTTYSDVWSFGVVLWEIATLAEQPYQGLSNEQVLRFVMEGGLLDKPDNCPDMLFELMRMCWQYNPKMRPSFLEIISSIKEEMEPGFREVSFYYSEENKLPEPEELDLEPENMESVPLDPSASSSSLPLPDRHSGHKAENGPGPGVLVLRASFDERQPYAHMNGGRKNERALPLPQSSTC
Nature of the assay: Example B-2: IGF-1R Assay (PathHunter cell lines, EC80 agonist challenge, chemiluminescent detection). It counts as cell-based. The note with it: PathHunter cells, compound 60 minutes at 37° C., EC80 agonist 3 hours; read-out: IC50, Biological Activity against IGF-1R (Table B2). In outline:
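PathHunter cells were pre-incubated with compound for 60 min at 37° C (1% vehicle), then challenged with EC80 agonist for 3 h at room temperature. Chemiluminescent detection after 1 h gave % inhibition relative to EC80 and vehicle controls, from which IC50 was derived.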
As a reminder, the IC50 is the concentration that inhibits the measured activity by half. As to `CC1(C)C(=O)N(c2ccc3c(c2)OCC32CCC2)C(=O)N1Cc1ccnc2c1CC(=O)N2` [Compound 51, 5,5-dimethyl-1-((2-oxo-2,3-dihydro-1H-pyrrolo[2,3-b]pyridin-4-yl)methyl)-3-(2H-spiro[benzofuran-3,1′-cyclobutan]-6-yl)imidazolidine-2,4-dione], the half-maximal inhibitory concentration (IC50) was at most 500 nM.

Consider `CC1(C)C(=O)N(c2ccc3c(c2)N(C(=O)C2CC2)CC32CCC2)C(=O)N1Cc1ccnc(N[C@H]2CCOC2)c1` [Compound 236, (S)-3-(1′-(cyclopropanecarbonyl)spiro [cyclobutane-1,3′-indolin]-6′-yl)-5,5-dimethyl-1-((2-((tetrahydrofuran-3-yl)amino)pyridin-4-yl)methyl)imidazolidine-2,4-dione], for which the IC50 was at most 500 nM.

Turning to `COCC1(Nc2cc(CN3C(=O)N(c4ccc(C5(C(F)(F)F)CC5)cc4)C(=O)C3(C)C)ccn2)CC1` [Compound 159, 1-((2-((1-(methoxymethyl)cyclopropyl)amino)pyridin-4-yl)methyl)-5,5-dimethyl-3-(4-(1-(trifluoromethyl)cyclopropyl)phenyl) imidazolidine-2,4-dione], the 50% inhibitory concentration (IC50) is at most 500 nM.

For the molecule `CC(C)(C)Cn1ccc(N2C(=O)N(Cc3ccnc4c3CC(=O)N4)C(C)(C)C2=O)cc1=O` [Compound 79, 5,5-dimethyl-3-(1-neopentyl-2-oxo-1,2-dihydropyridin-4-yl)-1-((2-oxo-2,3-dihydro-1H-pyrrolo[2,3-b]pyridin-4-yl)methyl)imidazolidine-2,4-dione], the concentration for half-maximal inhibition (IC50) was over 10000 nM.

`CN(C)CCOc1cc(N2C(=O)N(Cc3ccnc4c3CC(=O)N4)C(C)(C)C2=O)ccc1OC(F)(F)F` [Compound 284, 3-(3-(2-(dimethylamino)ethoxy)-4-(trifluoromethoxy)phenyl)-5,5-dimethyl-1-((2-oxo-2,3-dihydro-1H-pyrrolo[2,3-b]pyridin-4-yl)methyl)imidazolidine-2,4-dione]: the IC50 was in the range of 500 to 2000 nM.

For `COC[C@@H](C)Nc1cc(CN2C(=O)N(c3ccc(C(C)(C)C#N)cc3)C(=O)C2(C)C)ccn1` [Compound 150, (R)-2-(4-(3-((2-((1-methoxypropan-2-yl)amino)pyridin-4-yl)methyl)-4,4-dimethyl-2,5-dioxoimidazolidin-1-yl)phenyl)-2-methylpropanenitrile], the concentration for half-maximal inhibition (IC50) was at most 500 nM.

For `CN1CCC(Nc2cc(CN3C(=O)N(c4ccc(S(=O)(=O)C(F)(F)F)cc4)C(=O)C3(C)C)ccn2)CC1=O` (stereo not shown) [Compound 326, 5,5-dimethyl-1-((2-((1-methyl-2-oxopiperidin-4-yl)amino)pyridin-4-yl)methyl)-3-(4-((trifluoromethyl)sulfonyl)phenyl) imidazolidine-2,4-dione], the half-maximal inhibitory concentration (IC50) lay in the range of 2000 to 10000 nM.

For the molecule `CC1(C)C(=O)N(c2ccc(C3(C(F)(F)F)CC3)cc2)C(=O)N1Cc1ccnc(NCc2nc3ccccn3n2)c1` [Compound 175, 1-((2-(([1,2,4]triazolo[1,5-a]pyridin-2-ylmethyl)amino)pyridin-4-yl)methyl)-5,5-dimethyl-3-(4-(1-(trifluoromethyl)cyclopropyl)phenyl) imidazolidine-2,4-dione], the IC50 is at most 500 nM.

Regarding `CC1(C)C(=O)N(c2ccc(C3(C(F)(F)F)CCC3)cc2F)C(=O)N1Cc1ccnc2c1CC(=O)N2` [Compound 59, 3-(2-fluoro-4-(1-(trifluoromethyl)cyclobutyl)phenyl)-5,5-dimethyl-1-((2-oxo-2,3-dihydro-1H-pyrrolo[2,3-b]pyridin-4-yl)methyl)imidazolidine-2,4-dione], the IC50 was at most 500 nM.

Consider `C[C@@H](Nc1cc(CN2C(=O)N(c3ccc(S(=O)(=O)C(F)(F)F)cc3)C(=O)C2(C)C)ccn1)[C@@H]1CCCO1` [Compound 341, 5,5-dimethyl-1-((2-(((R)-1-((S)-tetrahydrofuran-2-yl)ethyl)amino)pyridin-4-yl)methyl)-3-(4-((trifluoromethyl)sulfonyl)phenyl) imidazolidine-2,4-dione], for which the half-inhibitory concentration (IC50) fell in the range of 500 to 2000 nM.

`CC(C)Nc1cc(CN2C(=O)N(c3ccc(C(C)(C)C#N)nc3)C(=O)C2(C)C)ccn1` [Compound 143, 2-(5-(3-((2-(isopropylamino)pyridin-4-yl)methyl)-4,4-dimethyl-2,5-dioxoimidazolidin-1-yl)pyridin-2-yl)-2-methylpropanenitrile]: the half-inhibitory concentration (IC50) lay within 500 to 2000 nM.

In the case of `CC(CF)Nc1cc(CN2C(=O)N(c3ccc(S(=O)(=O)C(F)(F)F)cc3)C(=O)C2(C)C)ccn1` (stereo not shown) [Compound 336, 1-((2-((1-fluoropropan-2-yl)amino)pyridin-4-yl)methyl)-5,5-dimethyl-3-(4-((trifluoromethyl)sulfonyl)phenyl) imidazolidine-2,4-dione], the half-inhibitory concentration (IC50) fell in the range of 500 to 2000 nM.

Consider `CN1CC(C)(C)c2ccc(N3C(=O)N(Cc4ccnc(N[C@H]5[C@@H]6COC[C@@H]65)c4)C(C)(C)C3=O)cc21` [Compound 218, 1-((2-(((1R,5S,6r)-3-oxabicyclo[3.1.0]hexan-6-yl)amino)pyridin-4-yl)methyl)-5,5-dimethyl-3-(1,3,3-trimethylindolin-6-yl)imidazolidine-2,4-dione], for which the IC50 is at most 500 nM.

Regarding `COCCN1CC(C)(C)c2ccc(N3C(=O)N(Cc4ccnc(NC5CCOCC5)c4)C(C)(C)C3=O)cc21` [Compound 227, 3-(1-(2-methoxyethyl)-3,3-dimethylindolin-6-yl)-5,5-dimethyl-1-((2-((tetrahydro-2H-pyran-4-yl)amino)pyridin-4-yl)methyl)imidazolidine-2,4-dione], the IC50 was at most 500 nM.

Turning to `CC1(C)C(=O)N(c2ccc3c(c2)N(S(C)(=O)=O)CC32CCC2)C(=O)N1Cc1ccnc(NCc2cccnc2)c1` [Compound 244, 5,5-dimethyl-3-(1′-(methylsulfonyl)spiro[cyclobutane-1,3′-indolin]-6′-yl)-1-((2-((pyridin-3-ylmethyl)amino)pyridin-4-yl)methyl)imidazolidine-2,4-dione], the IC50 was at most 500 nM.

Turning to `CC1(C)C(=O)N(c2ccc(C(F)(F)F)c(C#N)c2)C(=O)N1Cc1ccnc(N[C@H]2[C@@H]3COC[C@@H]32)c1` [Compound 180, 5-(3-((2-(((1R,5S,6r)-3-oxabicyclo[3.1.0]hexan-6-yl)amino)pyridin-4-yl)methyl)-4,4-dimethyl-2,5-dioxoimidazolidin-1-yl)-2-(trifluoromethyl)benzonitrile], the half-inhibitory concentration (IC50) was over 10000 nM.

As to `CCOC[C@H](C)Nc1cc(CN2C(=O)N(c3ccc(C4(C(F)(F)F)CC4)cc3)C(=O)C2(C)C)ccn1` [Compound 157, (S)-1-((2-((1-ethoxypropan-2-yl)amino)pyridin-4-yl)methyl)-5,5-dimethyl-3-(4-(1-(trifluoromethyl)cyclopropyl)phenyl) imidazolidine-2,4-dione], the half-maximal inhibitory concentration (IC50) was at most 500 nM.

As for `CC1(C)C(=O)N(c2ccc(C3(C(F)(F)F)CC3)cc2)C(=O)N1Cc1ccnc(NCc2nnc[nH]2)c1` [Compound 174, 1-((2-(((4H-1,2,4-triazol-3-yl)methyl)amino)pyridin-4-yl)methyl)-5,5-dimethyl-3-(4-(1-(trifluoromethyl)cyclopropyl)phenyl) imidazolidine-2,4-dione], the IC50 was at most 500 nM.

As for `CC1(C)C(=O)N(c2ccc(S(=O)(=O)C(F)(F)F)cc2)C(=O)N1Cc1ccnc(NC2CS(=O)(=O)C2)c1` [Compound 327, 1-((2-((1,1-dioxidothietan-3-yl)amino)pyridin-4-yl)methyl)-5,5-dimethyl-3-(4-((trifluoromethyl)sulfonyl)phenyl) imidazolidine-2,4-dione], the IC50 lay in the range of 2000 to 10000 nM.
